The source of these data is ChEMBL document CHEMBL4811216, “Chemotherapy for human schistosomiasis: how far have we come? What's new? Where do we go from here?” (RSC Med Chem, 2020).

The test system of data set [1] is Schistosoma mansoni. Nature of the data set: Schistosomicidal-activity against Schistosoma mansoni Puerto-Rican schistosomula incubated for 7 days by trypan blue dye-exclusion test. In kind it is functional, organism-based. As to conditions: 168 h.
In data set [2] the test system is Schistosoma mansoni. The data set can be described thus: Antischistosomal activity against Schistosoma mansoni Puerto-Rican infected in BALB/c mouse assessed as worm burden reduction at 300 mg/kg, po BID administered for 2 consecutive days by light microscopic method relative to control. It is filed as functional. On the set-up: scale not given: the % may be the effect or the level left.

Data set [3] has as its system Schistosoma japonicum. The data set can be described thus: Antischistosomal activity against adult Schistosoma japonicum assessed as reduction in worm vitality at >10 uM incubated for 48 hrs relative to control. It is filed as functional. On the set-up: scale not given: the % may be the effect or the level left. As to conditions: dose microM >10.
The subject of data set [4] is Schistosoma japonicum. The data set can be described thus: Antischistosomal activity against Schistosoma japonicum infected in ICR mouse assessed as total worm reduction at 250 mg/kg, po administered as single dose relative to control. On the set-up: scale not given: the % may be the effect or the level left. In kind it is functional.
The subject of data set [5] is Schistosoma japonicum. Nature of the data set: Antischistosomal activity against juvenile Schistosoma japonicum assessed as reduction in worm vitality at 25 uM incubated for 72 hrs relative to control. It is filed as functional. On the set-up: scale not given: the % may be the effect or the level left.
Another data set deals with Schistosoma haematobium. Nature of the data set: Antischistosomal activity against Schistosoma haematobium Egyptian infected in NMRI mouse assessed as worm burden reduction at 200 mg/kg, po measured after 14 days. On the set-up: scale not given: the % may be the effect or the level left. As to conditions: time 14 day. In kind it is functional.
Data set [6] concerns Schistosoma mansoni. Nature of the data set: Antischistosomal activity against Schistosoma mansoni Liberian infected in NMRI mouse assessed as worm burden reduction at 100 mg/kg, po measured after 14 days relative to control. It is filed as functional. On the set-up: scale not given: the % may be the effect or the level left. As to conditions: time 14 day.
Data set [7] has as its system Schistosoma mansoni. The data set can be described thus: Schistosomicidal-activity against Schistosoma mansoni LE assessed as seperation of worm couples at 25 uM measured within 120 hrs relative to control. In kind it is functional.
For data set [8], the system named is Schistosoma mansoni. Nature of the data set: Antischistosomal activity against Schistosoma mansoni LE assessed as worm mortality at 100 ug/ml measured after 72 hrs by inverted microscopic method relative to control. It is filed as functional.
The test system of data set [9] is Schistosoma mansoni. Nature of the data set: Antischistosomal activity against Schistosoma mansoni LE assessed as worm mortality at 100 ug/ml measured after 144 hrs by inverted microscopic method relative to control. It is filed as functional. Conditions: dose 100 µg/ml.
Data set [10] has as its system Schistosoma mansoni. The data set can be described thus: Antischistosomal activity against female Schistosoma mansoni assessed as worm killing effect at 100 uM measured after 24 hrs by phase-contrast microscopy relative to control. In kind it is functional.
Data set [11] concerns Schistosoma mansoni. Nature of the data set: Antischistosomal activity against male Schistosoma mansoni assessed as worm killing effect at 100 uM measured after 24 hrs by phase-contrast microscopy relative to control. In kind it is functional.
For data set [12], the system named is Schistosoma mansoni. Nature of the data set: Antischistosomal activity against Schistosoma mansoni assessed as worm killing effect at 100 uM measured after 24 hrs by phase-contrast microscopy relative to control. In kind it is functional.
In data set [13] the test system is Schistosoma mansoni. The data set can be described thus: Antischistosomal activity against Schistosoma mansoni infected in Swiss albino mouse assessed as reduction in worm burden at 20 mg/kg, po administered for 5 days relative to control. It is filed as functional. On the set-up: scale not given: the % may be the effect or the level left. Conditions: time 5 day.

Data set [14] concerns Schistosoma mansoni. Nature of the data set: Potentiation of praziquantel-induced antischistosomal activity against Schistosoma mansoni infected in Swiss albino mouse assessed as worm burden at 20 mg/kg, po administered for 5 days (reference value: 60%). In kind it is functional. Conditions: time 5 day.
The test system of data set [15] is Schistosoma mansoni. Nature of the data set: Potentiation of praziquantel-induced antischistosomal activity against Schistosoma mansoni infected in Swiss albino mouse assessed as intestinal egg burden at 20 mg/kg, po administered for 5 days (reference value: 67%). In kind it is functional. As to conditions: time 5 day.
Data set [16] deals with Schistosoma mansoni. The data set can be described thus: Antischistosomal activity against Schistosoma mansoni infected in Swiss albino mouse assessed as reduction in intestinal tissue egg burden at 20 mg/kg, po administered for 5 days relative to control. In kind it is functional. On the set-up: scale not given: the % may be the effect or the level left. As to conditions: time 5 day.

For data set [17], the system named is Schistosoma mansoni. Nature of the data set: Antischistosomal activity against Schistosoma mansoni infected in NMRI mouse assessed as worm burden reduction at 200 mg/kg, po administered as single dose measured after 16 to 18 days. It is filed as functional, organism-based. On the set-up: scale not given: the % may be the effect or the level left. Conditions: time 16-18 day.

For data set [18], the system named is Schistosoma mansoni. The data set can be described thus: Antischistosomal activity against adult Schistosoma mansoni LE assessed as reduction in worm vitality measured every 24 hrs by inverted microscopy. In kind it is functional, organism-based.
Data set [19] has as its system Schistosoma mansoni. The data set can be described thus: Antischistosomal activity against Schistosoma mansoni LE schistosomula assessed as reduction in worm vitality measured every 24 hrs by inverted microscopy. It is filed as functional, organism-based.
Data set [20] deals with Schistosoma mansoni. Nature of the data set: Antischistosomal activity against adult Schistosoma mansoni LE assessed as worm mortality at 100 ug/ml incubated for 72 hrs by inverted microscopic method relative to control. It is filed as functional.
The subject of data set [21] is Schistosoma mansoni. The data set can be described thus: Antischistosomal activity against Schistosoma mansoni infected in mouse assessed as worm burden reduction at 200 mg/kg, po administered as single dose and measured after 17 to 21 days relative to control. It is filed as functional. On the set-up: scale not given: the % may be the effect or the level left. As to conditions: time 17-21 day.

The subject of data set [22] is Schistosoma mansoni. Nature of the data set: Antischistosomal activity against adult Schistosoma mansoni incubated for 72 hrs by microscopic method. It is filed as functional, organism-based.
In data set [23] the test system is Schistosoma mansoni. Nature of the data set: Antischistosomal activity against Schistosoma mansoni NTS incubated for 72 hrs by microscopic method. In kind it is functional, organism-based.
In data set [24] the test system is Schistosoma mansoni. The data set can be described thus: Antischistosomal activity against Schistosoma mansoni incubated for 72 hrs by microscopic method. In kind it is functional, organism-based.
Data set [25] is described as follows: Half life in C57BL/6 mouse at 20 mg/kg, po. It is filed as ADME, organism-based. Conditions: in vivo.
The nature of data set [26]: Cmax in C57BL/6 mouse at 20 mg/kg, po measured after 3 hrs. On the set-up: route oral, dose 20 mg/kg, time 3 hrs. In kind it is ADME, organism-based. As to conditions: in vivo.
Data set [27] in a line: Volume of distribution in C57BL/6 mouse at 20 mg/kg, po. It is filed as ADME, organism-based. Conditions: in vivo.
For data set [28], the system named is Schistosoma mansoni. Nature of the data set: Antischistosomal activity against adult Schistosoma mansoni infected in NMRI mouse assessed as worm burden reduction at 400 mg/kg, po administered as single dose and measured at 21 days post treatment relative to control. On the set-up: scale not given: the % may be the effect or the level left. Conditions: time 21 day. It is filed as functional.

A short description of data set [29]: Oral bioavailability in C57BL/6 mouse at 20 mg/kg. In kind it is ADME, organism-based. Conditions: in vivo.

In the case of `C1CCCCCC2(CCCCC1)OOCCCOO2`, the EC50 (as a rule, the concentration needed to bring the measured effect to its halfway point) with Schistosoma mansoni [1] stood at 16 nM. The Activity in the data set on Schistosoma mansoni [2] was found to be 63%.

In the case of `O=C(C1CCCCC1)N1CC(=O)N2CCc3c(Br)cccc3C2C1` (stereo unspecified), the results for the Activity with Schistosoma japonicum [3], with Schistosoma japonicum [4] and in the data set with Schistosoma japonicum [5] were 100%, 54.3% and less than 10%, respectively.

Take `OC(c1cc(-c2ccccc2)nc2c(Cl)cc(Cl)cc12)C1CCCCN1` (stereo unspecified): the Activity with Schistosoma haematobium came to 100%; with Schistosoma mansoni [6] it was 87%.

Turning to `COc1cc([C@@H]2OC(=O)[C@@H]3[C@H]2C(=O)O[C@H]3c2cc(OC)c(O)c(OC)c2)cc(OC)c1O`, the Activity with Schistosoma mansoni [7] was determined as 100%.

Consider `COc1ccc(-c2cs/c(=N/N=C/CN3C(=O)c4ccccc4C3=O)[nH]2)cc1`, for which the mortality – broadly, the percentage killed – at 100 µg/mL in the data set with Schistosoma mansoni [8] turned out to be 60%. For the same compound, in the data set on Schistosoma mansoni [9], the Activity amounted to 100%.

In the case of `Brc1ccc(-c2c[nH]c(-c3ccccn3)n2)cc1`, the Activity was found to be 0% with Schistosoma mansoni [10]; 100% with Schistosoma mansoni [11]; 56% in the data set on Schistosoma mansoni [12]; 29% with Schistosoma mansoni [13]; 96% with Schistosoma mansoni [14]; 83% in the data set on Schistosoma mansoni [15]. In the data set on Schistosoma mansoni [16], the Activity was found to be 35%.

Take `Fc1ccc(Cl)cc1-c1nc(Nc2ccncc2)c2nccnc2n1`: the Activity in the data set on Schistosoma mansoni [17] came out at 51.6%.

Take `O=C1c2ccccc2C(=O)N1C/C=N/N=c1\[nH]c(-c2ccccc2)cs1`: the EC50 with Schistosoma mansoni [18] turned out to be 37500 nM; in the data set with Schistosoma mansoni [19] it was 5150 nM. Besides, the mortality at 100 µg/mL in the data set on Schistosoma mansoni [20] amounted to 100%.

For the compound `NC(=O)c1nc(-c2ccc(C(F)(F)F)c(F)c2)cnc1Nc1cnc(OCCCN2CCCCC2)nc1`, in the data set on Schistosoma mansoni [21], the Activity was found to be 37.6%.

`O=C(Nc1cc(C(F)(F)F)ccc1Cl)c1ccccc1O`: the IC50 (in general, the concentration that inhibits the measured activity by half) in the data set on Schistosoma mansoni [22] came to 600 nM; with Schistosoma mansoni [23], 200 nM.

`N#Cc1c(C(F)(F)F)cc(NCc2ccccc2F)n2c1nc1cc(Cl)c(Cl)cc12`: the IC50 in the data set with Schistosoma mansoni [24] stood at 380 nM. This compound yielded a t1/2 in [25] of 18 min. The Cmax (in general, the highest concentration seen after dosing) in data set [26] worked out at 300 nM. This compound also yielded a Vd in data set [27] of 0.18 L/kg. For the same compound, the results for the Activity in the data set on Schistosoma japonicum [5] and in the data set on Schistosoma mansoni [28] were less than 1% and 69%, respectively. In addition, the bioavailability (usually the share of a dose that reaches the circulation, judged against a reference dose that is usually intravenous) in data set [29] is less than 1%.
